The text below walks through data of US20180071280A1, “MODULATORS OF CELL DEATH PROCESSES” (URIFER LTD., priority 2015, published 2018).

Common to all, as to format: cell-based, human
The test system of one assay is PARP-1. Nature of the assay: PARP-1 poly-ADP-ribosylation activity in CC cells (WB). The note with it: co-treatment with 0260. The protocol:
(§1) WB analyses were carried out as previously described before. In brief, cells were lysed in RIPA buffer mixed with protease inhibitors and separated on SDS-PAGE gel, transferred to PVDF membrane treated with 5% skim milk to exclude non-specific background and incubated with a primary antibody over-night. The membrane was incubated for 1 h with a secondary antibody conjugated to Horseradish Peroxidase (HRP). The protein-antibody complex was visualized using the SuperSignal West Pico Chemiluminescent Substrate (Thermo scientific, USA).

The subject of a further assay is SW620 CC cells. Nature of the assay: MultiTox-Fluor cytotoxicity assay in SW620 CC cells. How it is done: Cell lines (HCT116, ht29, Rko, Hep3B, SW48, SW620, MDA-MB-231, PANC-1, su.86.86, Hfb) were obtained from the American Type Culture Collection (ATCC). Cell type authentication was carried out by microscope and DNA profiles using short tandem repeat analysis. Cells were grown in Minimum Essential Medium (MEM) containing 10% heat-inactivated Fetal Bovine Serum (FBS) or in Dulbecco's Modified Eagle's Medium (DMEM) containing 10% FBS, where specified, at 37° C. with 5% CO2. In general, the in-vitro experiments were carried out with 2. μM 0260 added into the growth medium. Dose response experiments included increasing 0260 concentrations. Cell death levels were determined using the MultiTox-Fluor Multiplex Cytotoxicity Assay (G9201, Promega, USA). In brief, 10,000 cells were seeded in black bottom 96 wells plate and were allowed to attach to the plate bottom for 16 h before the administration of various 0260 concentration in each well. Cell death levels were determined according to the manufacturer's protocol.
Cells death level was determined using the MultiTox-Fluor Multiplex Cytotoxicity Assay (G9201, Promega, USA) according to the manufacturer's protocol.

Another assay has as its system CC cells. As to the kind of experiment: Autophagy in CC cells (TEM, LC3 immuno-staining, WB). The note with it: co-treatment with 0260. How it is done:
as §1
Cells were fixed with 4% paraformaldehyde (30 min) and incubated with Permeabilization Solution containing 0.1% Triton X-100 (Sigma-Aldrich, Israel) in PBS at room temperature for 1 h. Nonspecific binding was blocked with PBS containing 10% fetal bovine serum for 1 h at room temperature. Cells were incubated with specific antibodies diluted 1:100 overnight at 4° C. Cells were washed (5 min) in PBS containing 0.2% Tween-20 (Sigma-Aldrich, Israel) to remove non-specific binding. Bound primary antibodies were detected by Alexa Fluor® 488 goat anti-mouse IgG antibody or Alexa Fluor® 594 goat anti-rabbit IgG antibody (Molecular Probes, Invitrogen, U.K.). Nuclei were visualized by incubation with Hoechst 33342 solution for 10 min (1:500). Nonspecific staining, as determined by binding to the secondary antibody only, was negligible. The immunostained slides were examined under the fluorescence microscope AxioimagerZ1 (Zeiss, Germany) or confocal fluorescence microscope (Olympus-FV1000).
Cells were grown in MEM or DMEM, washed twice with PBS and fixed for 5 minutes in Karnovsky fixative (2.5% glutaraldehyde, 2.5% paraformaldehyde in cacodylate buffer pH 7.4) on the tissue culture plate. Cells were then harvested, and transferred to 1.5 ml tube for further 1 h fixation at room temperature. The cells were then stored O.N at 4C° after which the samples were washed in 0.1 M cacodylate buffer and post-fixed with 1% OsO4 in 0.1 M sodium cacodylate buffer (Sigma-Aldrich, Israel) for 1 h. […]

Assay [1] concerns malignant cells (CC and MDA cells). As to the kind of experiment: Cellular ATP level (HPLC) in malignant cells. The note with it: SW620, co-treatment with 0260. How it is done: Quantification of intracellular ATP was carried out using HPLC as previously described.
Cells were suspended in 400 μl cold 0.4M perchloric acid solution, incubated on ice for 15 min, centrifuged at 12,000×g, neutralized with 4M K2CO3 to pH 7.5, incubated for 15 min on ice and concentrated (10,000×g). Chromatographic analyses were performed using Hitachi Elite LaChrom system at 30° C. applying supernatants to SUPELCOSIL™ LC-18-S HPLC Column (5 μm particle size, L×I.D. 25 cm×2.1 mm), flow rate 0.2 mL/min under isocratic elution conditions (50 mM potassium phosphate, 100 mM triethylamine, pH 6.5 (adjusted with phosphoric acid)):Acetonitrile (98.5:1.5)). Each analysis cycle was set to 30 min, chromatographic flow was monitored at 260 nm and integrated using EZChrom Elite Software.

Turning to `NC(=O)c1cccc(N)c1` [3AB, 3-Aminobenzamide, reference compound], the “0260-induced poly-ADP-ribosylation activity with PARP-1 inhibitor” value in the assay with PARP-1 is “abolished”. The “decrease of 0260-induced death” value in the assay with SW620 CC cells (CC cells, co-treatment with 0260) is 50%. The “induced autophagy with PARP-1 inhibition (LC3II to LC3 I ratio)” value with CC cells was “decreased LC3II to LC3 I ratio”.
As for `Cn1cnc(N)c2ncnc1-2` [3-MA, 3-Methyladenine, reference compound], in the assay on SW620 CC cells (SW620, co-treatment with 0260), the “death levels of 0260 treated cells with autophagy inhibitor” value is listed as “reduced death levels”. For the same molecule, the “ATP level in 0260 treated cells with autophagy inhibitor” value in assay [1] was “almost completely restored the ATP level”.
